Assays:
[1] = Volume of distribution at steady state in rhesus monkey at 1 mg/kg, po and 0.5 mg/kg, iv; assay type: ADME, organism-based, Macaca fascicularis; conditions: cynomolgus monkey, in vivo, read-out: Vdss
[2] = Terminal half life in Beagle dog at 1 mg/kg, po and 0.5 mg/kg, iv; assay type: ADME, organism-based, Canis lupus familiaris; conditions: in vivo
Hepatocyte [3] = test: Metabolic stability in human hepatocytes; assay type: ADME, cell-based
[4] = Volume of distribution at steady state in Sprague-Dawley rat at 10 mg/kg, po and 5 mg/kg, iv; assay type: ADME, organism-based; conditions: in vivo, read-out: Vdss
[5] = Oral bioavailability in Beagle dog at 1 mg/kg; assay type: ADME, organism-based, Canis lupus familiaris; conditions: in vivo
in vivo [6] = conditions: Sprague-Dawley, rat, iv, 5 mg/kg
[7] = Oral bioavailability in rhesus monkey at 1 mg/kg; assay type: ADME, organism-based, Macaca mulatta; conditions: in vivo
in vivo [8] = conditions: Sprague-Dawley, rat
[9] = Volume of distribution at steady state in Beagle dog at 1 mg/kg, po and 0.5 mg/kg, iv; assay type: ADME, organism-based, Canis lupus familiaris; conditions: in vivo, read-out: Vdss
Hepatocyte [10] = test: Metabolic stability in Sprague-Dawley rat hepatocytes; assay type: ADME, cell-based
[11] = Clearance in cynomolgus monkey at 1 mg/kg, po and 0.5 mg/kg, iv; assay type: ADME, organism-based, Macaca fascicularis; conditions: in vivo
[12] = Clearance in Beagle dog at 1 mg/kg, po and 0.5 mg/kg, iv; assay type: ADME, organism-based, Canis lupus familiaris; conditions: in vivo
in vivo [13] = conditions: Sprague-Dawley, rat, po, 10 mg/kg
[14] = Terminal half life in cynomolgus monkey at 1 mg/kg, po and 0.5 mg/kg, iv; assay type: ADME, organism-based, Macaca fascicularis; conditions: in vivo
[15] = Volume of distribution at steady state in cynomolgus monkey at 1 mg/kg, po and 0.5 mg/kg, iv; assay type: ADME, organism-based, Macaca fascicularis; conditions: in vivo, read-out: Vdss
[16] = Metabolic stability in rhesus monkey hepatocytes; assay type: ADME, cell-based, Macaca mulatta, Hepatocyte
[17] = Oral bioavailability in cynomolgus monkey at 1 mg/kg; assay type: ADME, organism-based, Macaca fascicularis; conditions: in vivo
[18] = Metabolic stability in Beagle dog hepatocytes; assay type: ADME, cell-based, Canis lupus familiaris, Hepatocyte
[19] = Metabolic stability in cynomolgus monkey hepatocytes; assay type: ADME, cell-based, Macaca fascicularis, Hepatocyte
[20] = Terminal half life in rhesus monkey at 1 mg/kg, po and 0.5 mg/kg, iv; assay type: ADME, organism-based, Macaca fascicularis; conditions: cynomolgus monkey, in vivo
[21] = Clearance in rhesus monkey at 1 mg/kg, po and 0.5 mg/kg, iv; assay type: ADME, organism-based, Macaca fascicularis; conditions: cynomolgus monkey, in vivo

| Stability (Hepatocyte [3]) | Stability (Hepatocyte [10]) | Stability [16] | Stability [18] | Stability [19] | SMILES | clearance (in vivo [6]) [mL/min/kg] | half-life (in vivo [8]) [h] | bioavailability (in vivo [13]) [%] | further results |
| --- | --- | --- | --- | --- | --- | --- | --- | --- | --- |
| Stable | Stable | Stable | Stable | Stable | CN([C@@H]1CCc2c(CC(=O)O)c3ccccc3n2C1)S(=O)(=O)c1ccc(F)cc1 [MK-7246] | 2.2 | 5.6 | 107 | Vd [1]: 2.6 L/kg; half-life [2]: 8.4 h; Vd [4]: 0.98 L/kg; bioavailability [5]: 5.6%; bioavailability [7]: 57%; Vd [9]: 2.3 L/kg; clearance [11]: 4.8 mL/min/kg; clearance [12]: 15 mL/min/kg; half-life [14]: 11 h; Vd [15]: 0.5 L/kg; bioavailability [17]: 10%; half-life [20]: 8.1 h; clearance [21]: 6.9 mL/min/kg |
| Stable | Stable | Stable | Stable | Stable | CN([C@@H]1CCc2c(CC(=O)O[C@@H]3O[C@H](C(=O)O)[C@@H](O)[C@H](O)[C@H]3O)c3ccccc3n2C1)S(=O)(=O)c1ccc(F)cc1 |  |  |  |  |
|  |  |  |  |  | CN([C@@H]1CCc2c(CC(=O)O)c3cccc(F)c3n2C1)S(=O)(=O)c1ccc(F)cc1 | 0.4 | 16 | 62 |  |

Source: ChEMBL document CHEMBL1641519, “Discovery of MK-7246, a selective CRTH2 antagonist for the treatment of respiratory diseases” (Bioorg Med Chem Lett, 2011)
